Data published in PMC10605449 (Biosensors, 2023).

Assays:
[1] = biological target: T1, DKC1(1-514) (Homo sapiens, UniProt O60832); assay: SPR Extract2Chip, cellular biotinylated DKC1(1-514), RuvBL1/RuvBL2 injected; assay type: binding
T1 construct: The cellular biotinylated His6-DKC1(1-514)-AviTag was immobilized using the approach described in Section 2.5.2; made in house; host or cells: E. coli BL21(DE3), co-expressed with BirA; soluble lysate used without purification
T1 sequence (O60832 1-514): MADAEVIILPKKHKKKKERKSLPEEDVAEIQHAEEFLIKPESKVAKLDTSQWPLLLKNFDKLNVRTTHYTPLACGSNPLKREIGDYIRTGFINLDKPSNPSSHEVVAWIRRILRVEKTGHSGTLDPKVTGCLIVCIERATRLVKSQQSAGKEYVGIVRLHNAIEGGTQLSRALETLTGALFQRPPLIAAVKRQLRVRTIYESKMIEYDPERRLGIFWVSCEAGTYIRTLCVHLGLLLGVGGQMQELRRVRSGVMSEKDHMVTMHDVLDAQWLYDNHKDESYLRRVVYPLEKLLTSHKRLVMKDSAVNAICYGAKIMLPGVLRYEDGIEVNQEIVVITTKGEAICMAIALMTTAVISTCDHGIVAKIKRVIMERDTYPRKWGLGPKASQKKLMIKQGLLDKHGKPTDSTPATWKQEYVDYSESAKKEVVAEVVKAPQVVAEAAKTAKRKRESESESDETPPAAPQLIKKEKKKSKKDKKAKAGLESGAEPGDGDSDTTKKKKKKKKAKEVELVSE
Description: The cellular biotinylation of the DKC1(1-514) protein followed the same approach as that described for CypD. DKC1(1-514) was expressed in BL21(DE3) in LB media and induced with 500 µM IPTG overnight at 18 °C. The PD-10 Desalting column was equilibrated with buffer U (50 mM HEPES pH 6.5, 750 mM KCl, 0.5 mM EDTA, and 0.5 mM TCEP).
The cellular biotinylated His6-DKC1(1-514)-AviTag was immobilized using the approach described in Section 2.5.2. The soluble cell lysate was diluted to 15 µg/mL and coupled with 150 and 300 s injection times to reach 130 to 175 RU. […]
All sensorgrams were processed by first subtracting the binding response recorded from the control surface (reference spot, where only the avidin protein is immobilized), followed by subtraction of the buffer blank injection from the reaction spot. All datasets were fitted to a simple 1:1 Langmuir interaction model to determine the kinetic rate constants, and the interaction affinity was additionally calculated at a steady state when applicable. […] The experiments with immobilized purified proteins were performed on a Biacore 4000 (Cytiva, Uppsala, Sweden), and the interaction was evaluated using the provided Biacore 4000 evaluation software, while the experiments with soluble cell lysates on a Biacore T200 (Cytiva, Uppsala, Sweden) used the provided Biacore T200 evaluation software. […]

[2] = biological target: T2, YAP(2-268):TEAD1(209-436) interaction (Homo sapiens, UniProt P28347); assay: SPR, inhibition of YAP:TEAD1 interaction: TEAD1 pre-incubated with binder, injected over cellular biotinylated YAP(2-268); assay type: binding; settings: for Effect on YAP(2-268):TEAD1 interaction compared with TEAD1 apo-form: TEAD1 incubated with saturating concentration (30 µM) of binder
T2 construct: made in house; host or cells: YAP: E. coli BL21 Star (DE3) pRARE2 lysate
Text: The cellular biotinylated YAP(2-268) protein, as well as the biotinylated YAP(61-100) peptide, were immobilized using a similar approach as that described previously. However, neutravidin protein (ThermoFisher Scientific) was used as the selected pre-coated surface on a CM5 Series S sensor chip instead of streptavidin. […] The remaining activated groups were then blocked with ethanolamine-HCl. […] The interaction analysis cycles consisted of 120 s of sample injection followed by 280 s of running buffer flow. The experiment was performed at 15 °C. To ensure that the surface integrity of the cellular biotinylated YAP remained intact and that the interaction kinetic profile with TEAD1 was restored, an additional injection of TEAD1 apo-form was performed at the end of each experiment. All sensorgrams were processed by first subtracting the binding response recorded from the control surface (reference spot, where only the avidin protein is immobilized), followed by subtraction of the buffer blank injection from the reaction spot. All datasets were fitted to a simple 1:1 Langmuir interaction model to determine the kinetic rate constants, and the interaction affinity was additionally calculated at a steady state when applicable. In cases where small molecules were present during the assay, a DMSO solvent correction (1–3%) was applied to account for variations in bulk signal and to achieve high-quality data. The experiments with immobilized purified proteins were performed on a Biacore 4000 (Cytiva, Uppsala, Sweden), and the interaction was evaluated using the provided Biacore 4000 evaluation software, while the experiments with soluble cell lysates on a Biacore T200 (Cytiva, Uppsala, Sweden) used the provided Biacore T200 evaluation software. All SPR experiments were performed in duplicate.

[3] = biological target: T3, TEAD1 (Homo sapiens, UniProt P28347); assay: Binary complex formation of TEAD1 to TEAD binders, SPR; assay type: binding; settings: data not shown
[4] = biological target: T3, TEAD1; assay: Binary complex formation of TEAD1 to TEAD binders, biochemical assays; settings: data not shown
[5] = biological target: T4, His6-RuvBL1(1-456)/RuvBL2(1-463) (UniProt Q9Y265 1-456; Q9Y230 1-463); assay: SPR; cellular biotinylated His6-DKC1(1-514)-AviTag captured from soluble cell lysate (130 to 175 RU) on neutravidin-coated CM5 chip; RuvBL1/RuvBL2 complexes injected, 10 concentrations, 2-fold series from 0.05 µM; 20 mM NaKPi pH 7.5, 150 mM NaCl, 5 mM MgCl2, 1 mM DTT, 0.05% Tween 20; 25 °C; 1:1 Langmuir fit; settings: one partner purified
T4 construct: RuvBL1, residues 1-456; RuvBL2, residues 1-463; also called RuvBL1/RuvBL2; AAA+ ATPases RuvBL1/RuvBL2; not shown: His6, N-terminal, kept

[6] = TEAD1 incubated with 30 µM binder 18 h at 30 °C, 15 °C

T4 sequence (Q9Y265 whole entry, chain 1 of 2, the tested form may be a part): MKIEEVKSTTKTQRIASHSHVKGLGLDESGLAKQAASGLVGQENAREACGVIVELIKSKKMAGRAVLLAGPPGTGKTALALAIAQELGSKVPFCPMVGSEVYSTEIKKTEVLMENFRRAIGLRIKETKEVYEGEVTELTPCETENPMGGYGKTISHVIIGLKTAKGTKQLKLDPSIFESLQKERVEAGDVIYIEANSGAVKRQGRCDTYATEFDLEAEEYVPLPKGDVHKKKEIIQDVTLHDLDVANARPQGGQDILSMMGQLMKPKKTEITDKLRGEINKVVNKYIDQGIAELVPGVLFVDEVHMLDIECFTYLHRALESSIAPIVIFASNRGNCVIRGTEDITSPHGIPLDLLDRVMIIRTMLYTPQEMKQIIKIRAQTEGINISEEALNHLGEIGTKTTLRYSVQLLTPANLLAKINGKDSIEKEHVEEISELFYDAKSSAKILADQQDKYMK
T4 sequence (Q9Y230 whole entry, chain 2 of 2, the tested form may be a part): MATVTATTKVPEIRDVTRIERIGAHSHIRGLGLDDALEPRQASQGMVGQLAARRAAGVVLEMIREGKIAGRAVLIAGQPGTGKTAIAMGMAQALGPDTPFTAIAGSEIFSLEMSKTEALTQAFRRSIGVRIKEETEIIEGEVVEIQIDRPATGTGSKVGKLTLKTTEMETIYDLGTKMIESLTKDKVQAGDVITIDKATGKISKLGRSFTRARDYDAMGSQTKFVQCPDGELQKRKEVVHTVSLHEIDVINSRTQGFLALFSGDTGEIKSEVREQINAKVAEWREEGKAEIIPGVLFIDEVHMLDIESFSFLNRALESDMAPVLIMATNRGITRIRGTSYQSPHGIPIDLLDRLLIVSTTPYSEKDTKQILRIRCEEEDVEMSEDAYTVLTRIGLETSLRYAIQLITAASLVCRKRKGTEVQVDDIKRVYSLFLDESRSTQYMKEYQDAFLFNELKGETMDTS
T2 sequence (P28347 209-426): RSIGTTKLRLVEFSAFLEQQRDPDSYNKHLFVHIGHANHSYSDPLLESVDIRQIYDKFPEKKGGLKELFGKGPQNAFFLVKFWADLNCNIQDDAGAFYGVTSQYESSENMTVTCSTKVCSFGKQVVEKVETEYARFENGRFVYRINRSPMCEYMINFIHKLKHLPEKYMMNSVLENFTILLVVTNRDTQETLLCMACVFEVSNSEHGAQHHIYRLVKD
T3 sequence (P28347 whole entry): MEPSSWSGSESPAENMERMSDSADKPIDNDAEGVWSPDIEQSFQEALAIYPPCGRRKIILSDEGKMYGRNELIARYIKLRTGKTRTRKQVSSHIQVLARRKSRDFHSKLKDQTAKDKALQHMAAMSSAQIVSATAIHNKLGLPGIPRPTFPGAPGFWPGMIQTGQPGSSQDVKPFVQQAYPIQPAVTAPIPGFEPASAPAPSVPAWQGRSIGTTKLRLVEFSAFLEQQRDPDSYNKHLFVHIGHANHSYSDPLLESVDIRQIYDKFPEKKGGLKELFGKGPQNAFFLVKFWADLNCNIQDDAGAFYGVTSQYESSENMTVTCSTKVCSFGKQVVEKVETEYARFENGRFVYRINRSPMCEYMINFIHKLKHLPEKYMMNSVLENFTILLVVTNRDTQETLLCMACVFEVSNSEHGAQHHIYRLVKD

Molecule: Nc1ncnc2c1ncn2[C@@H]1O[C@H](CO[P@](=O)(O)O[P@](=O)(O)O[P@@](=O)(O)S)[C@@H](O)[C@H]1O [ATPγS]
- Effect on DKC1:RuvBL1/RuvBL2 interaction ([1]; saturating concentrations, data not shown): Identical results

Molecule: CCCC[C@@H]1NC(=O)[C@H](CCCCN)NC(=O)[C@H](CCCNC(=N)N)NC(=O)[C@H](CC(C)C)NC(=O)[C@@H](NC(=O)[C@H](Cc2cccc(Cl)c2)NC(=O)[C@@H]2CCCN2C(=O)[C@@H](NC(C)=O)C(C)C)CCSSC[C@@H](C(=O)N[C@@H](CCCCN)C(=O)N2CCC[C@H]2C(=O)N2CCC[C@H]2C(=O)N[C@@H](CCC(=O)O)C(N)=O)NC(=O)[C@H](Cc2ccccc2)NC(=O)[C@H](CO)NC(=O)[C@H](C)NC(=O)[C@@H]2CCCN2C1=O [Peptide 17]
- Effect on YAP(2-268):TEAD1 interaction compared with TEAD1 apo-form [2]: significantly suppressed the interaction

Molecule: O=C(CCl)c1ccccc1Nc1cccc(C(F)(F)F)c1 [TED-347]
- ka ± SD of YAP(2-268):TEAD1 interaction in presence of binder [2, 6]: 1.2e+06 ± 120000 M⁻¹ s⁻¹
- kd ± SD of YAP(2-268):TEAD1 interaction in presence of binder [2, 6]: 0.34 ± 0.074 s⁻¹
- Effect on YAP(2-268):TEAD1 interaction compared with TEAD1 apo-form [2]: decrease in affinity
- Kd [3]: 1400 nM
- IC50 [4]: 340 nM

Molecule: RuvBL1_D302N, RuvBL2_D299N: ATP hydrolysis RuvBL1/RuvBL2 mutant
- Interaction with immobilized DKC1(1-514) ([1]; compared with RuvBL1(1-456)/RuvBL2(1-463), partly data not shown): Identical results

B1: Cellular biotinylated H/ACA ribonucleoprotein complex subunit Dyskerin pseudouridine synthase 1, His6-DKC1(1-514)-AviTag (natural protein, UniProt O60832 1-514, looked up)
chain: T1 sequence (O60832 1-514)
modifications: biotin on the AviTag (BirA, in the cells)
notes: Dyskerin pseudouridine synthase 1 (DKC1), residues 1-514; Captured from the lysate on a neutravidin-coated CM5 chip by the biotinylated AviTag; also called DCK1(1-514); DCK1(1-541); source: E. coli BL21(DE3), co-expressed with BirA-FLAG and D-biotin, in cleared lysate (desalted, not purified); not shown: His6, N-terminal, kept; AviTag, C-terminal, kept
- Kd [5]: 23 nM
- koff [5]: 0.015 s⁻¹
- kon [5]: 650000 M⁻¹ s⁻¹
